14 compounds from patent publication US10406146B2, “Heterocyclic compound” (TAKEDA PHARMACEUTICAL COMPANY LIMITED, priority 2015, dated 2019) can be followed below.

Holding throughout (assay type): biochemical
The target of test [1] is T1, HDAC9 enzyme (Homo sapiens, UniProt Q9UKV0).
T1 construct: transducing full length HDAC9 gene into Sf-9 insect cells; made in house; host or cells: Sf-9 insect cells
The test can be described thus: HDAC9 enzyme inhibitory assay (HDAC-Glo class IIa). To be noted: wells without enzyme = 100% inhibition, read-out: HDAC9 inhibitory rate (%) (1 μM). The procedure: HDAC9 Enzyme Inhibitory Assay
Enzyme was prepared by transducing full length HDAC9 gene into Sf-9 insect cells and purifying by Ni-NTA affinity column, and HDAC9 enzyme inhibitory activity was evaluated. Enzymes were used after preserved at −70° C. HDAC9 enzyme inhibitory activity of the test compound was measured using HDAC-Glo class IIa (Promega) according to the following experimental method. The test compound diluted with assay buffer (24 mM Tris-HCl (pH 7.5), 1 mM MgCl2, 0.35 mM KCl, 135 mM NaCl, 0.6 mM Glutathione, 0.01% Tween-20) was added to a 384-well plate by each 2 μL. Then, HDAC9 enzyme solution diluted with assay buffer was added thereto by each 2 μL, and the plate was incubated at room temperature for 60 min. After incubated, HDAC substrate-Developer solution prepared according to Promega protocol was added to the 384-well plate by each 4 μL, and the enzyme reaction was started. After reacting at room temperature for 20 min, luminescence level was measured using plate reader Envision (PerkinElmer). The inhibitory activity of each compound was calculated as a relative activity value when luminescence level in wells without enzyme is considered as 100% inhibition.

The target in test [2] is T2, HDAC6 enzyme (Homo sapiens, UniProt Q9UBN7).
T2 construct: transducing full length HDAC1 and HDAC6 genes into Sf-9 insect cells; GST; purchased SignalChem; host or cells: Sf-9 insect cells
T2 sequence (Q9UBN7 1-1215): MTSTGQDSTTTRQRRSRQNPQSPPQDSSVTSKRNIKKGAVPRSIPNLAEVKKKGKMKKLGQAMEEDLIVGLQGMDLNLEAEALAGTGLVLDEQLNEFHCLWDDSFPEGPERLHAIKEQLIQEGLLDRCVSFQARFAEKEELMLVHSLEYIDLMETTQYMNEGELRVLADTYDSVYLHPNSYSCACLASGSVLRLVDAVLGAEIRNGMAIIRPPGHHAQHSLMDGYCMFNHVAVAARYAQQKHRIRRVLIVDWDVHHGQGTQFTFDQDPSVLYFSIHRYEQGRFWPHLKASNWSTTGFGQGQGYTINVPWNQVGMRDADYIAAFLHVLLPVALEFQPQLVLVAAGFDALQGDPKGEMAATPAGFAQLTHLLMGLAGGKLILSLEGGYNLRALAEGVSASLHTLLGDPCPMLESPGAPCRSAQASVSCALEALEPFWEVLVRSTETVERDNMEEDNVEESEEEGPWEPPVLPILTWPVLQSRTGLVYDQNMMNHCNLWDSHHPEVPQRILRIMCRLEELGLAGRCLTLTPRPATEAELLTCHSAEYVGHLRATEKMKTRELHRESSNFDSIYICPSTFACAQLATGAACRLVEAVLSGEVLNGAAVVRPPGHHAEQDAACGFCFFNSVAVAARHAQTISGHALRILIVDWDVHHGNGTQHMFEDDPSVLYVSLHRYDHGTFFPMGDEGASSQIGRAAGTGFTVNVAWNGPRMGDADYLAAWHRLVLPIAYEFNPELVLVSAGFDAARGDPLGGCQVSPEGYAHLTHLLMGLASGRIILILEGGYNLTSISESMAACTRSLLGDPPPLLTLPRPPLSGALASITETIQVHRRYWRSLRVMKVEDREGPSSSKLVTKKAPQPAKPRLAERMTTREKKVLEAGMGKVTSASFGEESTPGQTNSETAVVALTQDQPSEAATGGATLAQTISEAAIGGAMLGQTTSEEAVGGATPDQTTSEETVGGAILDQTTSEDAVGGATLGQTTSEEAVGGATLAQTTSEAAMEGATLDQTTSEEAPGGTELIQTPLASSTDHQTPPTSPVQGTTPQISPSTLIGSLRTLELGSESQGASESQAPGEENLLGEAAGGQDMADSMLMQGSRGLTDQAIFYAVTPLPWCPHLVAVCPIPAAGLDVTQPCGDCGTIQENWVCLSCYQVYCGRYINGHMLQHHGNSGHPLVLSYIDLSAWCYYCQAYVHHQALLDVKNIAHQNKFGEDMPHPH
Kind of test: HDAC6 enzyme inhibitory assay (HDAC-Glo I/II Assay kit). To be noted: wells without enzyme = 100% inhibition, read-out: HDAC6 inhibitory rate (%) (1 μM). The procedure: (§1) HDAC1/6 Enzyme Inhibitory Assay
(§2) HDAC1 enzyme and HDAC6 enzyme each prepared by transducing full length HDAC1 and HDAC6 genes into Sf-9 insect cells and purifying by GST affinity column were purchased from SignalChem. Using these enzymes, HDAC1 and/or HDAC6 enzyme inhibitory activities of the compound of the present invention were evaluated. Enzymes were used after preserved at −70° C. HDAC1 or HDAC6 enzyme inhibitory activity of the compound of the present invention was measured using HDAC-Glo™ I/II Assay kit (Promega) according to the following experimental method. The test compound diluted with assay buffer (24 mM Tris-HCl (pH 7.5), 1 mM MgCl2, 0.35 mM KCl, 135 mM NaCl, 0.6 mM Glutathione, 0.01% Tween-20) was added to a 384-well plate by each 2 μL. Then, HDAC1 or HDAC6 enzyme solution diluted with assay buffer was added thereto by each 4 μL, and the plate was incubated at room temperature for 60 min. After incubated, HDAC substrate-Developer solution prepared according to Promega protocol attached to the assay kit was added to the 384-well plate by each 2 μL, and the enzyme reaction was started. After reacting at room temperature for 20 min, luminescence level was measured using plate reader Envision (PerkinElmer). The inhibitory activity of each compound was calculated as a relative activity value when luminescence level in wells without enzyme is considered as 100% inhibition.

For test [3], the target named is T3, HDAC1 enzyme (Homo sapiens, UniProt Q13547).
T3 construct: transducing full length HDAC1 and HDAC6 genes into Sf-9 insect cells; GST; purchased SignalChem; host or cells: Sf-9 insect cells
T3 sequence (Q13547 whole entry): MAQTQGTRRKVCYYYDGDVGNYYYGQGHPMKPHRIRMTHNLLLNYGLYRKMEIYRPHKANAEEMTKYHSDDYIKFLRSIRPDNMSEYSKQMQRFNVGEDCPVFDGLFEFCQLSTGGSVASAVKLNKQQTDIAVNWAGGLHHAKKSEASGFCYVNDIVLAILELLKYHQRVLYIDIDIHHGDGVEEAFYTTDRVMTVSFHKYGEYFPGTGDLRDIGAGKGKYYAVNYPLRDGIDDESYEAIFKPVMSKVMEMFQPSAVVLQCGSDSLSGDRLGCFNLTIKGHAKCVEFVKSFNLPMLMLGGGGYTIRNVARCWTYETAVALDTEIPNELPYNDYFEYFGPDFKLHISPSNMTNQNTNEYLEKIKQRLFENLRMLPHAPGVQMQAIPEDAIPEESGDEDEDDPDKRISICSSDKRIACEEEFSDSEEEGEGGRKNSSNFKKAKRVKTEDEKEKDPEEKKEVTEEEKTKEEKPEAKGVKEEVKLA
Kind of test: HDAC1 enzyme inhibitory assay (HDAC-Glo I/II Assay kit). To be noted: wells without enzyme = 100% inhibition, read-out: HDAC1 inhibitory rate (%) (1 μM). How it is done:
as §1, §2

T1 sequence (Q9UKV0 whole entry, species assumed): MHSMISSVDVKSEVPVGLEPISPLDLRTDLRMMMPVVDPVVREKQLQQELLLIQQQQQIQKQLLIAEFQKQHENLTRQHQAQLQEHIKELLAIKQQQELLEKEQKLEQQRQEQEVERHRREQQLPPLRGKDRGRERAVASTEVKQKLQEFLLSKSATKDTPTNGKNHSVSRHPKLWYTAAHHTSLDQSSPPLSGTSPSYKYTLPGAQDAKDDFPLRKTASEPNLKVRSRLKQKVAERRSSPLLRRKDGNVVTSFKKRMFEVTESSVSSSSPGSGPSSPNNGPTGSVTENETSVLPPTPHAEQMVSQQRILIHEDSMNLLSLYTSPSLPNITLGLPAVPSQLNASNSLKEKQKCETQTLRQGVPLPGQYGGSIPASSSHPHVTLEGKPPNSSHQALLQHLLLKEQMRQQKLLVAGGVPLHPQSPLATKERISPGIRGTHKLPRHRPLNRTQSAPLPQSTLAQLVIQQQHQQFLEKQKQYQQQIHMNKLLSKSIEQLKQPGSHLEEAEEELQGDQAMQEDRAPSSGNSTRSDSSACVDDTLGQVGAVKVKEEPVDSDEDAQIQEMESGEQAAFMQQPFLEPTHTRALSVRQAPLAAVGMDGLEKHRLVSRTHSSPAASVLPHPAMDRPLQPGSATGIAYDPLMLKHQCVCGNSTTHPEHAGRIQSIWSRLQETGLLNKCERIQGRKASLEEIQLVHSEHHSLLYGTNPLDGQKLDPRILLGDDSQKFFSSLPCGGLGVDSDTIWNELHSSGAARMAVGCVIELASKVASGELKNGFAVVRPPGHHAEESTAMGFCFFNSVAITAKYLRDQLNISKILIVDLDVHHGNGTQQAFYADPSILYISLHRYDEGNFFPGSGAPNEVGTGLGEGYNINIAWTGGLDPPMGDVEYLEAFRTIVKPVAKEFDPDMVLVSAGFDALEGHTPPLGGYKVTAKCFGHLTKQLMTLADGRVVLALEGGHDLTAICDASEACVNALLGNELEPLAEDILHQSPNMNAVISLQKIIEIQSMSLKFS

On to `Cn1nccc1C(=O)NCC1COCCN1C(=O)Nc1ccc(-c2noc(C(F)(F)F)n2)cc1` (stereo not drawn) [Example 61, 3-((((1-methyl-1H-pyrazol-5-yl)carbonyl)amino)methyl)-N-(4-(5-(trifluoromethyl)-1,2,4-oxadiazol-3-yl)phenyl)morpholine-4-carboxamide], for which the inhibition at 1 µM is 98% in test [1], 8% in test [2] and 62% in test [3].

Consider `O=C(CCc1ccccc1)NCC1CCCCN1C(=O)Nc1ccc(-c2noc(C(F)(F)F)n2)cc1` (stereo not drawn) [Example 47, 2-(((3-phenylpropanoyl)amino)methyl)-N-(4-(5-(trifluoromethyl)-1,2,4-oxadiazol-3-yl)phenyl)piperidine-1-carboxamide], for which the inhibition at 1 µM in test [1] came out at 89%; in test [2] it was 7%; in test [3], 68%.

As to `Cn1nc(C(=O)NCC2CCCCN2C(=O)Nc2ccc(-c3noc(C(F)(F)F)n3)cc2)c2ccccc21` (stereo not drawn) [Example 42, 1-methyl-N-((1-((4-(5-(trifluoromethyl)-1,2,4-oxadiazol-3-yl)phenyl)carbamoyl)piperidin-2-yl)methyl)-1H-indazole-3-carboxamide], the results for the inhibition at 1 µM in test [1], in test [2] and in test [3] were 71%, 3% and 8%, respectively.

For the compound `O=C(NCC1CCCCN1C(=O)Nc1ccc(-c2noc(C(F)(F)F)n2)cc1)C1CC1` (stereo not drawn) [Example 49, 2-(((cyclopropylcarbonyl)amino)methyl)-N-(4-(5-(trifluoromethyl)-1,2,4-oxadiazol-3-yl)phenyl)piperidine-1-carboxamide], the inhibition at 1 µM is 92% in test [1], 7% in test [2] and 75% in test [3].

Turning to `O=C(NCC1CCCCN1C(=O)Nc1ccc(-c2noc(C(F)(F)F)n2)cc1)C1CCc2ccccc2O1` (stereo not drawn) [Example 43, 2-(((3,4-dihydro-2H-chromen-2-ylcarbonyl)amino)methyl)-N-(4-(5-(trifluoromethyl)-1,2,4-oxadiazol-3-yl)phenyl)piperidine-1-carboxamide], the inhibition at 1 µM in test [1] was 74%; in test [2], 7%; in test [3], 57%.

With `O=C(NCC1CCCCN1C(=O)Nc1ccc(-c2noc(C(F)(F)F)n2)cc1)c1ccc(Cl)c(Cl)c1` (stereo not drawn) [Example 32, 2-(((3,4-dichlorobenzoyl)amino)methyl)-N-(4-(5-(trifluoromethyl)-1,2,4-oxadiazol-3-yl)phenyl)piperidine-1-carboxamide], the results for the inhibition at 1 µM in test [1], in test [2] and in test [3] were 62%, 0% and -10%, respectively.

Turning to `O=C(NCC1CCCCN1C(=O)Nc1ccc(-c2noc(C(F)(F)F)n2)cc1)c1ccc(-c2ccccc2)cc1` (stereo not drawn) [Example 15, 2-(((biphenyl-4-ylcarbonyl)amino)methyl)-N-(4-(5-(trifluoromethyl)-1,2,4-oxadiazol-3-yl)phenyl)piperidine-1-carboxamide], the inhibition at 1 µM in test [1] is 40%; in test [2] it was -1%; in test [3] it was -12%.

For the compound `O=C(NCC1CCCCN1C(=O)Nc1ccc(-c2noc(C(F)(F)F)n2)cc1)c1cccc(Cl)c1Cl` (stereo not drawn) [Example 30, 2-(((2,3-dichlorobenzoyl)amino)methyl)-N-(4-(5-(trifluoromethyl)-1,2,4-oxadiazol-3-yl)phenyl)piperidine-1-carboxamide], the inhibition at 1 µM is 70% in test [1], 1% in test [2] and 4% in test [3].

For `Cc1ccc(C(=O)NCC2CCCCN2C(=O)Nc2ccc(-c3noc(C(F)(F)F)n3)cc2)cc1` (stereo not drawn) [Example 12, 2-(((4-methylbenzoyl)amino)methyl)-N-(4-(5-(trifluoromethyl)-1,2,4-oxadiazol-3-yl)phenyl)piperidine-1-carboxamide], the inhibition at 1 µM in test [1] was 67%; in test [2], 5%; in test [3], -16%.

With `Cc1ccccc1C(=O)NCC1CCCCN1C(=O)Nc1ccc(-c2noc(C(F)(F)F)n2)cc1` (stereo not drawn) [Example 10, 2-(((2-methylbenzoyl)amino)methyl)-N-(4-(5-(trifluoromethyl)-1,2,4-oxadiazol-3-yl)phenyl)piperidine-1-carboxamide], the inhibition at 1 µM in test [1] was determined as 84%; in test [2], 5%; in test [3] it was 4%.

On to `N#Cc1ccccc1C(=O)NCC1CCCCN1C(=O)Nc1ccc(-c2noc(C(F)(F)F)n2)cc1` (stereo not drawn) [Example 19, 2-(((2-cyanobenzoyl)amino)methyl)-N-(4-(5-(trifluoromethyl)-1,2,4-oxadiazol-3-yl)phenyl)piperidine-1-carboxamide], for which the results for the inhibition at 1 µM in test [1], in test [2] and in test [3] were 72%, 2% and 15%, respectively.

Regarding `O=C(NCC1CCCCN1C(=O)Nc1ccc(-c2noc(C(F)(F)F)n2)cc1)c1cc2ccccc2o1` (stereo not drawn) [Example 44, 2-(((1-benzofuran-2-ylcarbonyl)amino)methyl)-N-(4-(5-(trifluoromethyl)-1,2,4-oxadiazol-3-yl)phenyl)piperidine-1-carboxamide], the inhibition at 1 µM in test [1] stood at 79%; in test [2], 1%; in test [3], 3%.

As for `CN1CCC(C(=O)NCC2CCCCN2C(=O)Nc2ccc(-c3noc(C(F)(F)F)n3)cc2)CC1` (stereo not drawn) [Example 52, 2-((((1-methylpiperidin-4-yl)carbonyl)amino)methyl)-N-(4-(5-(trifluoromethyl)-1,2,4-oxadiazol-3-yl)phenyl)piperidine-1-carboxamide], the inhibition at 1 µM in test [1] came out at 80%; in test [2], 6%; in test [3], 27%.

In the case of `O=C(NCC1CCCCN1C(=O)Nc1ccc(-c2noc(C(F)(F)F)n2)cc1)c1cccc(C(F)(F)F)c1` (stereo not drawn) [Example 17, 2-(((3-(trifluoromethyl)benzoyl)amino)methyl)-N-(4-(5-(trifluoromethyl)-1,2,4-oxadiazol-3-yl)phenyl)piperidine-1-carboxamide], the inhibition at 1 µM in test [1] came out at 80%; in test [2], 1%; in test [3], 4%.
